Assay results taken from patent publication US10828370B2, “Selectin and ICAM/VCAM peptide ligand conjugates” (Purdue Research Foundation, priority 2014, dated 2020).

How the values were obtained:
[1] = test system: Selectin (E-Selectin and S-Selectin); settings: selectin-binding peptide, free sequence; literature reference; cited from earlier work
[2] = test system: TNF-α stimulated endothelial cells (ECs); experiment: Relative binding affinity of EC-SEAL conjugates to endothelial cells (Streptavidin-HRP absorbance); assay type: cell-based; settings: 3 μM treatments

| Substance | IC50 [1] | relative binding to endothelial cells vs single receptor-binding conjugates (FIG. 4) [2] |
| --- | --- | --- |
| IDLMQAR | ~200 µM |  |
| IELLQAR | ~200 µM |  |
| IEL/DGE-10,10 (peptide 1 IELLQARGC; peptide 2 DGEATDGC) |  | greater binding |
| QITWAQLWNMMK | ~0.16 µM |  |
